Test results taken from patent US20260365670A1, “EGFR INHIBITORS AND USES THEREOF” (DIZAL (JIANGSU) PHARMACEUTICAL CO., LTD., priority 2022, published 2026).
Like-named read-outs stand apart in the source and are kept apart here.

Legend:
[1] = target: T1, EGFR wild type (Homo sapiens, UniProt P00533); assay: Inhibition of EGFR wild type biochemical enzymatic activity (HTRF); details: 1 mM ATP
T1 construct: purchased Carna Bio
How it was run: (§1)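 Each enzyme was first added to plates holding compound. The reaction was then started with ATP (1 mM) and peptide substrate (1 μM). It was stopped after 1 h at room temperature with EDTA detection reagents and read at 615/665 nm to derive IC50s.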

[2] = target: T2, EGFR L858R (Homo sapiens, UniProt P00533, L858R); assay: Inhibition of EGFR L858R biochemical enzymatic activity (HTRF); details: 1 mM ATP
T2 construct: purchased Carna Bio
T2 sequence (P00533 25-1210 L858R): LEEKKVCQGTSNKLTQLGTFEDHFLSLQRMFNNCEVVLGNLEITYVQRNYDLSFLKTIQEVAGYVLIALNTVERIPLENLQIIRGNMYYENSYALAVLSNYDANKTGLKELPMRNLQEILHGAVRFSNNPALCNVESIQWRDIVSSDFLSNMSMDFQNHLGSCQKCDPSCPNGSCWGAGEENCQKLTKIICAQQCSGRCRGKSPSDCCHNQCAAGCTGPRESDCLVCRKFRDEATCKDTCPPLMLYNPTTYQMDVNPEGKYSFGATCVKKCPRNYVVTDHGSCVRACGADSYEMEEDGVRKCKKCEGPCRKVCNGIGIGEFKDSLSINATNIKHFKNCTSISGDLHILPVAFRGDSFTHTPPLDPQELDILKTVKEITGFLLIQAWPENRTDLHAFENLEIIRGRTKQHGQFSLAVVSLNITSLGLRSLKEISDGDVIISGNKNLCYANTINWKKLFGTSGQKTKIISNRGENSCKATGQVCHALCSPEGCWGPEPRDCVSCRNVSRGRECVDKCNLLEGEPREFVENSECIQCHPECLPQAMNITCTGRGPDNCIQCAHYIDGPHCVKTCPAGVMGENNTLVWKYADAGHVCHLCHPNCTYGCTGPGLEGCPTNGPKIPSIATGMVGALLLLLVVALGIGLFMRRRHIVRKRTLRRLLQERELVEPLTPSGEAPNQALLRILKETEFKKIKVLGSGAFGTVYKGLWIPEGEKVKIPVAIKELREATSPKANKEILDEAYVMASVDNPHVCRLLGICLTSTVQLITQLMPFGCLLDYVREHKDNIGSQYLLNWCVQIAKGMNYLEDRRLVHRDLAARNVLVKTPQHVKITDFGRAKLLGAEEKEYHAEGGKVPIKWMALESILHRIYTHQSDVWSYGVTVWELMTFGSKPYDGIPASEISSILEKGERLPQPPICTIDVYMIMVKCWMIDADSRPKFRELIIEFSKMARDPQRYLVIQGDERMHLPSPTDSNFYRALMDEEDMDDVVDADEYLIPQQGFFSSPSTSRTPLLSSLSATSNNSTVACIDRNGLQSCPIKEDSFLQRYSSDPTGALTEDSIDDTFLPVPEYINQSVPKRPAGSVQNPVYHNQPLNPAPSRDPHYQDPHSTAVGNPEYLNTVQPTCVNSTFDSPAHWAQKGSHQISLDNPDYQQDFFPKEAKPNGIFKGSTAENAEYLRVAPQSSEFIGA
How it was run: as §1

[3] = target: T3, EGFR L858R/T790M (Homo sapiens, UniProt P00533, L858R/T790M); assay: Inhibition of EGFR L858R/T790M biochemical enzymatic activity (HTRF); details: 1 mM ATP
T3 construct: purchased Carna Bio
How it was run: as §1

[4] = target: T4, EGFR Exon19Del (Homo sapiens, UniProt P00533, DEL746-750); assay: Inhibition of EGFR Exon19Del biochemical enzymatic activity (HTRF); details: read-out: IC50 @Del19
T4 construct: purchased Carna Bio
T4 sequence (P00533 with tags, fused parts or gaps DEL746-750 limits assumed): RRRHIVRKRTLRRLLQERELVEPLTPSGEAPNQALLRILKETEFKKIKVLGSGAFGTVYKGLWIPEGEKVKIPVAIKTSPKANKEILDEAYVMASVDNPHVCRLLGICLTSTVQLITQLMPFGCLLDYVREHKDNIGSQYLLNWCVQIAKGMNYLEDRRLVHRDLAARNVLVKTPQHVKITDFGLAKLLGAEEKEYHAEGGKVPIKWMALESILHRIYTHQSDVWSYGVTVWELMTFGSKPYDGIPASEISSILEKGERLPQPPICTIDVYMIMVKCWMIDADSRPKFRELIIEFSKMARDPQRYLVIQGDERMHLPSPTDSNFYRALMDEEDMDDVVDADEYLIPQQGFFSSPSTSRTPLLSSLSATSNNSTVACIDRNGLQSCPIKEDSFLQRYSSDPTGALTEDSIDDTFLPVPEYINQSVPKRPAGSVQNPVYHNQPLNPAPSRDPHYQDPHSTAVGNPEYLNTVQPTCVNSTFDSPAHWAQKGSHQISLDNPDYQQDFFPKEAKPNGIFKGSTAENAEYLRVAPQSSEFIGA
How it was run: as §1

[5] = target: T5, EGFR Exon19Del/T790M (Homo sapiens, UniProt P00533, DEL746-750/T790M); assay: Inhibition of EGFR Exon19Del/T790M biochemical enzymatic activity (HTRF); details: 1 mM ATP
T5 construct: purchased Carna Bio
How it was run: as §1

[6] = target: T6, EGFR[T790M/C797S/L858R] (Homo sapiens, UniProt P00533, C797S/L858R/T790M); assay: Inhibition of EGFR[T790M/C797S/L858R] biochemical enzymatic activity (HTRF); details: 1 mM ATP
T6 construct: purchased Carna Bio
T6 sequence (P00533 25-1210 T790M/C797S/L858R): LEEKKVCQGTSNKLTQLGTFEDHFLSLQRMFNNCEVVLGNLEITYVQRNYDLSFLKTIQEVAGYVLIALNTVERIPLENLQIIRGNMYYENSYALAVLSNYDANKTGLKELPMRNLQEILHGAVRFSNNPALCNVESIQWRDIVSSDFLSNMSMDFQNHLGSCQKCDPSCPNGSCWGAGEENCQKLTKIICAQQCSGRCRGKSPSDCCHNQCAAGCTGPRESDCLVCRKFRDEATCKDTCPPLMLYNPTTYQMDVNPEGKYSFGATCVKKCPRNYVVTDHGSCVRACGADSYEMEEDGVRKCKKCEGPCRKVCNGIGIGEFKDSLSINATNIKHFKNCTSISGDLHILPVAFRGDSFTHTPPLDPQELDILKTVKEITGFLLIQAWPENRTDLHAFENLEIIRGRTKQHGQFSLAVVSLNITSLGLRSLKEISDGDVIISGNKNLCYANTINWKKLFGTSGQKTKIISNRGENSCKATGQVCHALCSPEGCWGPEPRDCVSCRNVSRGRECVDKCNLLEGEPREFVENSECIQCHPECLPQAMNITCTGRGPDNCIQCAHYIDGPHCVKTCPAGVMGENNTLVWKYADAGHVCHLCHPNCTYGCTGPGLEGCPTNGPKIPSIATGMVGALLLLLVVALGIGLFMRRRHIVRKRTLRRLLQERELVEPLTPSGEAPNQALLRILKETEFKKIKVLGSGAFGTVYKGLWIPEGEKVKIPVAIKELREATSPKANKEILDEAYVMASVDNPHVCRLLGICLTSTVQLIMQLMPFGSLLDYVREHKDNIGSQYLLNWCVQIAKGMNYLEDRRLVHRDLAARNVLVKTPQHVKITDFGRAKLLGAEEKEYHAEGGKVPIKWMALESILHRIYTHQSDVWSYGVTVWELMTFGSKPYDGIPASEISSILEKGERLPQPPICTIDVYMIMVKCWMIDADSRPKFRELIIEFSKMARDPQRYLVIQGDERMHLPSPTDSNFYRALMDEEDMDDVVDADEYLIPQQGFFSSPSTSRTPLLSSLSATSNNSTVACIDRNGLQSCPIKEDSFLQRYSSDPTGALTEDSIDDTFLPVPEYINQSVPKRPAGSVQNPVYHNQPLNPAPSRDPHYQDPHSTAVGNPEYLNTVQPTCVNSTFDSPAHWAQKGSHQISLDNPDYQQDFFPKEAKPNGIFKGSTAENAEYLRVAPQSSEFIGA
How it was run: as §1

[7] = target: T7, EGFR[T790M/C797S/d746-750] (Homo sapiens, UniProt P00533, C797S/DEL746-750/T790M); assay: Inhibition of EGFR[T790M/C797S/d746-750] biochemical enzymatic activity (HTRF)
T7 construct: purchased Carna Bio
How it was run: as §1

[8] = target: T8, EGFR (d746-750 C797S) (Homo sapiens, UniProt P00533, C797S/DEL746-750); assay: Inhibition of EGFR (d746-750 C797S) biochemical enzymatic activity (HTRF); details: 1 mM ATP
T8 construct: purchased signalchem
T8 sequence (P00533 with tags, fused parts or gaps DEL746-750/C797S limits assumed): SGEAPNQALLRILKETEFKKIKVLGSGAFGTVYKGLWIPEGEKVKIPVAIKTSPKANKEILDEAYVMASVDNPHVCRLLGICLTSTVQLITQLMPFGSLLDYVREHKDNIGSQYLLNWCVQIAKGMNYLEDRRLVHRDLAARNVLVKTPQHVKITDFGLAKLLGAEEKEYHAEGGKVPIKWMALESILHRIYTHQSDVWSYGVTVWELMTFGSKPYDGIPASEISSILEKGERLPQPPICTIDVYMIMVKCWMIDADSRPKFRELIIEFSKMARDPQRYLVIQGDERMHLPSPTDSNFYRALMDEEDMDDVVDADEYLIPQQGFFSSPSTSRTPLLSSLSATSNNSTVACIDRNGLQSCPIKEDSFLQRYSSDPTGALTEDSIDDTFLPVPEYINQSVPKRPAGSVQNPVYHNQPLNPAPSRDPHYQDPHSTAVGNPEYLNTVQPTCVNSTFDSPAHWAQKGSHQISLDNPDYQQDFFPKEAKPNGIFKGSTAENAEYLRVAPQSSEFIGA
How it was run: as §1

[9] = target: T9, EGFR (C797S L858R) (Homo sapiens, UniProt P00533, C797S/L858R); assay: Inhibition of EGFR (C797S L858R) biochemical enzymatic activity (HTRF); details: 1 mM ATP
T9 construct: purchased signalchem
How it was run: as §1

[10] = tested on: Ba/F3 cells expressing EGFR mutations; assay: Cell proliferation assay, Ba/F3 cells expressing EGFR mutations (CellTiter-Glo, 72 hours); format: cell-based; details: Mus musculus, BaF3, 72 h
How it was run: (§2)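 Cells are exposed to graded compound concentrations after overnight plating, using 500 PC-9 or 5000 Ba/F3 per well. Baseline-subtracted viability is compared with vehicle to give percent proliferation, then GI50.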

[11] = tested on: PC-9; assay: Cell proliferation assay, PC-9 cells (CellTiter-Glo, 72 hours); format: cell-based; details: Homo sapiens, PC-9, 72 h, PC9 cells, read-out: GI50 PC9
How it was run: as §2

[12] = tested on: A-431; assay: Cell proliferation assay, A-431 cells (GI50, Table 6); format: cell-based; details: Homo sapiens, A-431, A-431 cells
[13] = BaF3 cells, EGFR DEL19 - C797S, read-out: GI50 DEL19 - C797S/BaF3
[14] = BaF3 cells, EGFR DEL19 - T790-C797S, read-out: GI50 DEL19 - T790-C797S/BaF3
[15] = BaF3 cells, EGFR L858R - C797S, read-out: GI50 L858R - C797S/BaF3
[16] = BaF3 cells, EGFR L858R - T790-C797S, read-out: GI50 L858R - T790-C797S/BaF3
[17] = BaF3 cells, EGFR L858R - T790M, read-out: GI50 L858R - T790M/BaF3
[18] = BaF3 cells, EGFR L858R, read-out: GI50 L858R/BaF3
[19] = EGFR DEL19 - T790M, read-out: GI50 DEL19 - T790M
[20] = EGFR WT, 1 h, room temperature, read-out: IC50 (nM) @WT
[21] = 1 h, room temperature, read-out: IC50 (nM) @L858R
[22] = EGFR L858R-T790M, 1 h, room temperature, read-out: IC50 (nM) @L858R-T790M
[23] = EGFR Del19, 1 mM ATP, 1 h, room temperature
[24] = EGFR Del19-T790M, 1 h, room temperature, read-out: IC50 (nM) @Del19-T790M
[25] = EGFR T790M-C797S-L858R, 1 h, room temperature, read-out: IC50 (nM) @T790M- C797S - L858R
[26] = EGFR T790M-C797S-Del19, 1 mM ATP, 1 h, room temperature, read-out: IC50 (nM) @T790M - C797S - Del19
[27] = EGFR Del19-C797S, 1 h, room temperature, read-out: IC50 (nM) @Del19-C797S
[28] = EGFR L858-C797S, 1 h, room temperature, read-out: IC50 (nM) @L858-C797S

T1 sequence (P00533 25-1210): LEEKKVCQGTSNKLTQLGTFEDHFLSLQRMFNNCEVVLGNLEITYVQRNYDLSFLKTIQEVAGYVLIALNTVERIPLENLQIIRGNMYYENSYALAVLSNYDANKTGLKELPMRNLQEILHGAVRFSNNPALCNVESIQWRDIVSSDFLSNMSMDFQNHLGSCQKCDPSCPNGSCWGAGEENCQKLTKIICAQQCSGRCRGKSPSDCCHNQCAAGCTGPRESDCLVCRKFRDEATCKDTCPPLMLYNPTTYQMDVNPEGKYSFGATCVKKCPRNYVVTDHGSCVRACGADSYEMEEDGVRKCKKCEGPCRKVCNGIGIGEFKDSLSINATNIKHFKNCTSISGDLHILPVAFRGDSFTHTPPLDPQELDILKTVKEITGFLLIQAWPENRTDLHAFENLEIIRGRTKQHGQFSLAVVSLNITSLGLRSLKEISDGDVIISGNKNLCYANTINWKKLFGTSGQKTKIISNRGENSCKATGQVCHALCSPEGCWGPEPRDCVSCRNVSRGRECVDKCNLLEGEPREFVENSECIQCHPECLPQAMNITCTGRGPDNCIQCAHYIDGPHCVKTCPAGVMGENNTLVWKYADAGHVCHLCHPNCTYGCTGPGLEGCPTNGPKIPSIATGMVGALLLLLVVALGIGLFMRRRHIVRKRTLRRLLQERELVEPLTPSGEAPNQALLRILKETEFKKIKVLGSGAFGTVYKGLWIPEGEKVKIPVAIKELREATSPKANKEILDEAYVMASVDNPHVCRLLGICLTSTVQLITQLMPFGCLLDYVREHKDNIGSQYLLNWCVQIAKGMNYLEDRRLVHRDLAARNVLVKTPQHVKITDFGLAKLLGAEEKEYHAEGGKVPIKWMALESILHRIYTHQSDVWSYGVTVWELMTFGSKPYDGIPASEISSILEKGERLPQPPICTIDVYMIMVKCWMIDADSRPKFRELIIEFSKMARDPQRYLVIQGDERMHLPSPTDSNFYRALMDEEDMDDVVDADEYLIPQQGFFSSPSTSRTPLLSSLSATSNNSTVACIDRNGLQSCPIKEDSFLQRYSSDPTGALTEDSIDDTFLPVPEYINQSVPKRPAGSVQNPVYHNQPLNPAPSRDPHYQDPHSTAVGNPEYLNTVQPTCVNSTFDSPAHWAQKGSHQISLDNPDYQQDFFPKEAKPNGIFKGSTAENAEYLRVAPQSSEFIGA

| GI50 [10, 13] [µM] | GI50 [10, 14] [µM] | GI50 [10, 15] [µM] | GI50 [10, 16] [µM] | GI50 [10, 17] [µM] | GI50 [10, 18] [µM] | GI50 [10, 19] [µM] | GI50 [11] [µM] | GI50 [12] [µM] | IC50 [1, 20] [nM] | IC50 [2, 21] [nM] | IC50 [3, 22] [nM] | IC50 [4, 23] [µM] | IC50 [5, 24] [nM] | IC50 [6, 25] [nM] | IC50 [7, 26] [nM] | IC50 [8, 27] [nM] | IC50 [9, 28] [nM] | other results | Compound |
| --- | --- | --- | --- | --- | --- | --- | --- | --- | --- | --- | --- | --- | --- | --- | --- | --- | --- | --- | --- |
| 0.017 | 0.005 | 0.116 | 0.011 | 0.034 | 0.085 | 0.005 | 0.098 | 7.81 | – | – | – | – | – | – | – | – | – | IC50 ([1]; EGFR wild type, 1 h at room temperature, read-out: IC50 @WT): > 5000 nM; IC50 ([2]; 1 h at room temperature, read-out: IC50 @L858R): 320 nM; IC50 ([3]; EGFR L858R/T790M, 1 h at room temperature, read-out: IC50 @L858R-T790M): 17 nM; IC50 ([4]; EGFR Exon19Del, 1 mM ATP, 1 h at room temperature): 0.023 µM; IC50 ([5]; EGFR Exon19Del/T790M, 1 h at room temperature, read-out: IC50 @Del19-T790M): 9.5 nM; IC50 ([6]; EGFR[T790M/C797S/L858R], 1 h at room temperature, read-out: IC50 @T790M- C797S - L858R): 5.9 nM; IC50 ([7]; EGFR[T790M/C797S/d746-750], 1 mM ATP, 1 h at room temperature, read-out: IC50 @T790M - C797S - Del19): 7.8 nM; IC50 ([8]; EGFR (d746-750 C797S), 1 h at room temperature, read-out: IC50 @Del19-C797S): 14 nM; IC50 ([9]; EGFR (C797S L858R), 1 h at room temperature, read-out: IC50 @L858-C797S): 145 nM | Cc1cc2cc(n1)-c1cnn(C)c1OCCN1CC3CCC(CC3)(C1)n1c(nc3ccc(N4CC[C@H](N(C)C)C4)cc31)NC2=O [Example B28] |
| 0.018 | 0.0047 | 0.153 | 0.01 | 0.014 | 0.125 | 0.005 | 0.102 | 3.17 | > 5000 | 320 | 25 | 0.047 | 13 | 36 | 20 | 560 | 28 | – | Cc1cc2cc(n1)-c1cnn(C)c1OCCN1CC3CCC(CC3)(C1)n1c(nc3ccc(N4CCOCC4)cc31)NC2=O [Example B2, 15,21-Dimethyl-5-(morpholin-4-yl)-23-oxa-2,9,11,16,20,21,26-heptaazaheptacyclo[26.2.2.1^{1,26}.1^{13,17}.0^{2,10}.0^{3,8}.0^{18,22}]tetratriaconta-3,5,7,9,13,15,17(34),18(22),19-nonaen-12-one] |
| 0.013 | 0.09 | 0.065 | 0.047 | 0.119 | 0.011 | 0.066 | 0.061 | 2.65 | > 5000 | 202 | 307 | 0.011 | 8 | 33 | 4.7 | 4.9 | 49 | – | Cn1ncc2c1OCCN1CC3CCC(CC3)(C1)n1c(nc3ccc(N4CCN(C5CC5)CC4)cc31)NC(=O)c1cc-2c(=O)n(C)c1 [Example A128] |
